Measured values taken from publication PMC2713788 (Experimental eye research, 2009).
No end group written: not given here.

Legend:
in vitro [1] = assay type: in vitro ADME; settings: human, cells or culture medium, bradykinin remaining in media
in vitro [2] = assay type: in vitro ADME; settings: human, cells or culture medium, bradykinin present in media

RPPGFSPFR [bradykinin]
remaining at 0.5 h, 500 pg/ml (in vitro [1]): 51 ± 5%
remaining at 1 h, 500 pg/ml (in vitro [1]): 15 ± 3%
remaining at 1.5 h, 500 pg/ml (in vitro [1]): 9 ± 3%
remaining at 0.5 h, 500 pg/ml (in vitro [2]): 73 ± 3%
remaining at 1 h, 500 pg/ml (in vitro [2]): 52 ± 3%
